Earlier results as cited in US20100112053A1, “GASTRIC RETENTION-TYPE SUSTAINED-RELEASE LEVODOPA PREPARATION” (Kissei Pharmaceutical Co., Ltd., priority 2007, published 2010).
Like-named read-outs stand apart in the source and are kept apart here.

[1] = under a weakly acidic to basic condition

Solubility [1] | Solubility (under an acidic condition) | SMILES
low | high | C[C@@](Cc1ccc(O)c(O)c1)(NN)C(=O)O [carbidopa]
low | high | N[C@@H](Cc1ccc(O)c(O)c1)C(=O)O [levodopa]
